Laboratory results as given in patent publication US5760235A, “Anticoagulant peptide derivatives and pharmaceutical compositions containing the same as well as a process for preparation thereof” (Gyogyszerkutato Intezet Kft., priority 1992, dated 1998).

Columns and labels:
native whole human blood = assay: In vitro whole blood clotting time (WBCT), native human blood; type: biochemical; design: unit not given here
Experimental: (§1) The antithrombin activity of the compounds of general formula (I) was determined by the usual method [Bagdy et al.: Thromb Haemostas 67, 325-330 (1992)] by measuring whole blood clotting time (WBCT), thrombin time (TT) and activated partial thromboplastin time (APTT). The in vitro activity of some compounds of the invention assayed on native human blood (non-anticoagulated clotting) (WBCT) and on citrated blood plasma (TT and APTT) is presented in Table 1.
(§2) ^2 WBCT = whole blood clotting time, TT = thrombin time, APTT =
(§3) activated partial thromboplastin time parameter. The figures represent
(§4) concentrations of the compounds required to double the clotting time of
(§5) native whole human blood or of citrated blood plasma.

[1] = system: fibrinolysis induced by tissue plasminogen activator; assay: Fibrinolysis induced by tissue plasminogen activator, thromboelastogram; type: biochemical
Excerpt: The compounds of the general formula (I) inhibit clot formation without interfering with the natural lysis of blood clots in the body, e.g. fibrinolysis. […] Thromboelastography. In: Bang N. U., F. K. Beller, E. Deutsch, E. F. Mamman eds. Thrombosis and Bleeding Disorders. Theory and Methods. Academic Press, London, 1971: 70-76].

citrated blood plasma [2] = assay: In vitro thrombin time (TT), citrated blood plasma; type: biochemical, human; design: unit not given here
Experimental: as §1, §2, §3, §4, §5

citrated blood plasma [3] = assay: In vitro activated partial thromboplastin time (APTT), citrated blood plasma; type: biochemical, human; design: unit not given here
Experimental: as §1, §2, §3, §4, §5

Compound | WBCT: concentration required to double the clotting time (native whole human blood) | inhibitory effect on fibrinolysis induced by tissue plasminogen activator [1] | TT: concentration required to double the clotting time (citrated blood plasma [2]) | APTT: concentration required to double the clotting time (citrated blood plasma [3])
N=C(N)NCCC[C@@H](C=O)NC(=O)[C@H]1CCCN1C(=O)C(O)C1CCCCC1.N=C(N)NCCC[C@@H](C=O)NC(=O)[C@H]1CCCN1C(=O)C(O)C1CCCCC1.O=S(=O)(O)O (stereo partly drawn) [Example 8, D-2-Cyclohexyl-2-hydroxyacetyl-L-prolyl-L-arginine aldehyde hemisulfate] | 0.72 | only negligible inhibitory effect | 0.100 | 0.35
N=C(N)NCCC[C@@H](C=O)NC(=O)[C@@H]1CCCN1C(=O)[C@H](O)C(c1ccccc1)c1ccccc1.N=C(N)NCCC[C@@H](C=O)NC(=O)[C@@H]1CCCN1C(=O)[C@H](O)C(c1ccccc1)c1ccccc1.O=S(=O)(O)O [Example 12, 3,3-Diphenyl-D-lactyl-L-prolyl-L-arginine aldehyde hemisulfate] | 0.52 | – | 0.077 | 0.12
N=C(N)NCCC[C@@H](C=O)NC(=O)[C@H]1CCCN1C(=O)C(O)c1ccc2ccccc2c1.N=C(N)NCCC[C@@H](C=O)NC(=O)[C@H]1CCCN1C(=O)C(O)c1ccc2ccccc2c1.O=S(=O)(O)O (stereo partly drawn) [Example 13, D-2-(2-Naphthyl)-2-hydroxyacetyl-L-prolyl-L-arginine aldehyde hemisulfate] | 1.13 | – | 0.100 | 1.00
N=C(N)NCCC[C@@H](C=O)NC(=O)[C@H]1CCCN1C(=O)C(O)c1cccc2ccccc12.N=C(N)NCCC[C@@H](C=O)NC(=O)[C@H]1CCCN1C(=O)C(O)c1cccc2ccccc12.O=S(=O)(O)O (stereo partly drawn) [Example 14, D-2-(1-Naphthyl)-2-hydroxyacetyl-L-prolyl-L-arginine aldehyde hemisulfate] | 1.04 | – | 0.150 | 0.52
